Here are results for two compounds from patent US9023861B2, “Anticancer combination of artemisinin-based drugs and other chemotherapeutic agents” (Sigma-Tau Industrie Farmaceutiche Riunite, S.p.A., priority 2009, dated 2015).

One data set relates to LoVo. The data set can be described thus: Anti-proliferative activity, sulphorodamine B test. Type of data set: cell-based. The conditions noted are these: Homo sapiens, 24 h exposure, 48 h recovery. Here is the method: (§1) The biological activity of DHA and ART on tumour cells survival was evaluated. The latter were seeded in 96-well tissue culture plates at approximately 10% confluence and were allowed to attach and recover for at least 24 h before being exposed to DHA or ART for 24 h at 37° C. They were then washed to remove DHA and ART and left to recover for 48 hours in medium culture. The medium culture was then removed and cells were washed three times with PBS. The plates were then incubated for on ice for 1 hour with 200 μl of PBS and 50 μl of cold 80% TCA before being washed with distilled water, dried on paper and finally at 40° C. for 5 minutes. 200 μl of 0.4% sulphorodamine B in 1% acetic acid were added and the incubation was prolonged for 30 minutes. Sulphorodamine B was removed, and the plates were washed 3 times with 1% acetic acid. They were finally dried on paper followed by standing at 40° C. for 5 minutes. Then 200 μl Tris 10 mM were added, the plates were kept under stirring for 20 minutes. Cell survival was determined as optical density at 540 nm by means of a Multiskan spectrofluorimeter. The amount of cells killed was expressed as the percentage decrease in sulphorodamine B binding compared to control cultures. IC50 were generated with their standard deviations by the ALLFIT program.

The subject of the next data set is SW620. Kind of data set: Anti-proliferative activity, sulphorodamine B test. Type of data set: cell-based. Particulars: Homo sapiens, SW-620, 24 h exposure, 48 h recovery. Here is the method:
as §1

Another data set has as its system A2780. Kind of data set: Anti-proliferative activity, sulphorodamine B test. Particulars: Homo sapiens, 24 h exposure, 48 h recovery. Type of data set: cell-based. Here is the method:
as §1

For the next data set, the system named is MCF-7. Kind of data set: Anti-proliferative activity, sulphorodamine B test. Type of data set: cell-based. Particulars: Homo sapiens, MCF7, 24 h exposure, 48 h recovery. Here is the method: as §1
Another data set relates to LoVo/Dx MDR. The data set can be described thus: Anti-proliferative activity, sulphorodamine B test. Particulars: LoVo/Dx MDR; 24 h exposure, 48 h recovery. Type of data set: cell-based. Here is the method: as §1
The test system of the next data set is MCF-7/Dx MDR. Kind of data set: Anti-proliferative activity, sulphorodamine B test. Type of data set: cell-based. Particulars: for IC50: MCF7/DX, MCF-7/Dx MDR, 24 h exposure, 48 h recovery; for resistance index: MCF-7/Dx MDR versus MCF-7. As for the experimental part: as §1
In another data set the test system is HT29. The data set can be described thus: Anti-proliferative activity, sulphorodamine B test. Type of data set: cell-based. Particulars: Homo sapiens, HT-29, 24 h exposure, 48 h recovery. Here is the method:
as §1

In the next data set the test system is NCI-H460. Kind of data set: Anti-proliferative activity, sulphorodamine B test. Type of data set: cell-based. Particulars: Homo sapiens, 24 h exposure, 48 h recovery. As for the experimental part: as §1
For a further data set, the system named is HCT116. Kind of data set: Anti-proliferative activity, sulphorodamine B test. The conditions noted are these: Homo sapiens, HCT-116, 24 h exposure, 48 h recovery. Type of data set: cell-based. As for the experimental part:
as §1

Data set [1] relates to HCT116 colon cancer cells. Kind of data set: In vivo antitumour activity, s.c. xenograft in CD1 nude mice. The conditions noted are these: DHA 200 mg/kg p.o., AZD2281 100 mg/kg i.p., qdx5/wx4w. Here is the method:
HCT116 colon cancer cells were inoculated subcutaneously (s.c.) in the right flank of CD1 nude mice (5×10^6/0.1 ml of Medium 199). Treatments started three days after tumour injection. Mice were subdivided (8 mice/group) in the following experimental groups:
(§2) a) Vehicle (DMSO 10%) 10 ml/kg, i.p.;
b) DHA 200 mg/kg, p.o. qdx5/wx4w;
d) AZD2281+DHA (doses and schedules as above);
e) ABT-888 50 mg/kg, i.p. qdx5/wx4w;
f) ABT-888+DHA (doses and schedules as above).
DHA was administered immediately before AZD2281 or ABT-888.
The antitumour activity was evaluated according to the protocol reported hereinabove in example 3 when tumours reached a volume of about 500 mm^3.
Body weight recording was carried out to evaluate body weight loss according to the protocol reported hereinabove in example 3.

Data set [2] has as its system NCI-H460 non-small cell lung carcinoma. Kind of data set: In vivo antitumor activity, s.c. xenograft in CD1 nude mice. Particulars: DHA 200 mg/kg p.o., AZD2281 100 mg/kg i.p., qdx5/wx3w. As for the experimental part: NCI-H460 non-small cell lung carcinoma cells were inoculated subcutaneously (s.c.) in the right flank of CD1 nude mice (3×10^6/0.1 ml of Medium 199). Treatments started three days after tumour injection. Mice were subdivided (10 mice/group) in the following experimental groups:
as §2
b) DHA 200 mg/kg, p.o. qdx5/wx3w;
d) AZD2281+DHA (doses and schedules as above).
For the latter experiment DHA was administered immediately before AZD2281.
To evaluate the antitumour activity, tumour diameters were measured with a Vernier calliper according to the formula TV=d^2×D/2 where d and D are the shortest and longest diameters, respectively.
When tumours reached a volume of about 1500 mm^3, mice were sacrificed by cervical dislocation. The efficacy of the drug was assessed as the tumour volume inhibition according to the formula reported underneath: […]
Body weight recording was carried out to evaluate body weight loss as calculated in the equation underneath: […]
Wherein BW day x corresponds to the mean weight at day x of the experiment meanwhile BW day 1 corresponds to the mean weight at the first day of the experiment.

For the compound `C[C@H]1[C@@H](O)O[C@@H]2O[C@@]3(C)CC[C@H]4[C@H](C)CC[C@@H]1[C@@]24OO3` [DHA, dihydroartemisinin], the IC50 (as a rule, the midpoint of a concentration-inhibition curve) in the data set on LoVo was determined as 2.57 ± 0.8 µM; with SW620, 1.8 ± 0.1 µM; in the data set on A2780, 0.23 ± 0.02 µM; in the data set with MCF-7, 1.05 ± 0.08 µM; in the data set with LoVo/Dx MDR, 1.18 ± 0.3 µM; in the data set with MCF-7/Dx MDR, 0.97 ± 0.3 µM. Moreover, the half-inhibitory concentration (IC50) in the data set on HT29 was 5.8 ± 0.5 µM; in the data set on NCI-H460, 8.16 ± 0.5 µM; in the data set on HCT116 it was 0.37 ± 0.08 µM. In addition, in the data set on MCF-7/Dx MDR, the resistance index is recorded as 0.92. In addition, the “tolerability (body weight loss during the treatment)” value in [1] (HCT116 xenograft mice, ABT-888 50 mg/kg) is given as “well-tolerated”; in data set [2] (NCI-H460 xenograft mice) it was “well-tolerated”. For the same compound, the BWL % was 1% in [1] (body weight loss, HCT116 xenograft, CD1 nude mice, ABT-888 50 mg/kg i.p.) and 0% in data set [2] (body weight loss, NCI-H460 xenograft, CD1 nude mice). In addition, the TVI % turned out to be 0% in data set [1] (tumour volume inhibition, HCT116 xenograft, CD1 nude mice, ABT-888 50 mg/kg i.p.) and 3% in data set [2] (tumour volume inhibition, NCI-H460 xenograft, CD1 nude mice). The “TV ± SE” value was found to be 447 ± 39 in data set [1] (tumour volume, HCT116 xenograft, CD1 nude mice, ABT-888 50 mg/kg i.p., evaluated at about 500 mm^3) and 1575 ± 191 in [2] (tumour volume, NCI-H460 xenograft, CD1 nude mice, sacrifice at about 1500 mm^3).
With `C[C@@H]1CC[C@H]2[C@@H](C)C(=O)O[C@@H]3O[C@@]4(C)CC[C@@H]1[C@]32OO4` [ART, artemisinin], the IC50 in the data set with LoVo is more than 200 µM; in the data set on MCF-7, 45.8 ± 11.5 µM; with LoVo/Dx MDR, more than 200 µM; in the data set with MCF-7/Dx MDR it was 187 ± 70 µM; with HCT116, 257 ± 28.8 µM. The resistance index in the data set on MCF-7/Dx MDR turned out to be 4.
